Experimental data taken from ChEMBL document CHEMBL1126951, “Structure-based design of inhibitors of purine nucleoside phosphorylase. 2. 9-Alicyclic and 9-heteroalicyclic derivatives of 9-deazaguanine” (J Med Chem, 1993).

Columns and labels:
[1] = target: T1, Purine nucleoside phosphorylase (Bos taurus, UniProt P55859); assay: Inhibition of purine nucleoside phosphorylase from calf spleen in 50 mM phosphate
T1 sequence (P55859 whole entry): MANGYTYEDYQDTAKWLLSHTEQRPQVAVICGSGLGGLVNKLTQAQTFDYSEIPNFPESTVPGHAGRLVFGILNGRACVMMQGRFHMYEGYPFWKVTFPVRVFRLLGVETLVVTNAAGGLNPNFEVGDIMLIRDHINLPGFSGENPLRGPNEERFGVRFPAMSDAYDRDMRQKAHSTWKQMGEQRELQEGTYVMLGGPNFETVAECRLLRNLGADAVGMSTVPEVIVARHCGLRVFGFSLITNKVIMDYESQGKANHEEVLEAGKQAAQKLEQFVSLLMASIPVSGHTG

[2] = target: T1, Purine nucleoside phosphorylase; assay: biochemical
Description: In vitro inhibition of purine nucleoside phosphorylase from calf spleen in 1 mM phosphate

Question: With `Nc1nc2c(CC3CCCCCC3)c[nH]c2c(=O)[nH]1` as the compound, how does the IC50 [1] read?
Answer: 0.86 µM

Question: Which IC50 [1] does the source give for `Nc1nc(O)c2[nH]cc(CC3CCCSS3)c2n1` (centres undefined) here?
Answer: 0.2 µM

Question: `Nc1nc2c(CC3CCCS3)c[nH]c2c(=O)[nH]1` (centres undefined) was tested. Which IC50 [1] did it give?
Answer: 0.22 µM

Question: And the IC50 [2]?
Answer: 0.011 µM

Question: For `Nc1nc2c(CC3CCCO3)c[nH]c2c(=O)[nH]1` (centres undefined), which IC50 [1] is on record?
Answer: 0.3 µM

Question: And the IC50 [2]?
Answer: 0.07 µM

Question: With `CC1CCCC(Cc2c[nH]c3c(=O)[nH]c(N)nc23)C1` (centres undefined) as the compound, how does the IC50 [1] read?
Answer: 0.82 µM

Question: `Nc1nc(O)c2[nH]cc(C3=CCCCC3)c2n1` was tested. Which IC50 [1] did it give?
Answer: 19 µM

Question: And the IC50 [2]?
Answer: 1.9 µM

Question: Which IC50 [1] does the source give for `Nc1nc(O)c2[nH]cc(C3CCCCC3)c2n1` here?
Answer: 150 µM

Question: `Nc1nc(O)c2[nH]c(N)c(CC3CCCCC3)c2n1` was tested. Which IC50 [1] did it give?
Answer: 150 µM

Question: And the IC50 [2]?
Answer: 6.6 µM

Question: How did the IC50 [1] turn out when `Nc1nc2c(CC3CCCNC3)c[nH]c2c(=O)[nH]1` (centres undefined) was run?
Answer: 1 µM

Question: And the IC50 [2]?
Answer: 1 µM
